From patent US9359445B2, “Compositions and methods for treating neurological disorders” (The J. David Gladstone Institutes, priority 2010, dated 2016)
“Also recorded” adds a separate entry of the source.

Key:
[1] = test system: Venus-PKD1; assay: Venus-PKD1 translocation to dendritic puncta (puncta index) in transfected neurons; format: cell-based, mouse; conditions: for effect on glutamate-induced Venus-PKD1 puncta formation: drug applied with glutamate; for Venus-PKD1 translocation / puncta formation induced by the substance: substance applied alone, glutamate 30 μM, ACPD 500 μM, K+ 55 mM in the presence of APV
[2] = test system: PKD1; assay: PKD1 phosphorylation (activation) in stimulated mouse cortical neurons, western blot; format: cell-based; conditions: for effect on glutamate-induced PKD1 phosphorylation: antagonist applied with glutamate; for PKD1 phosphorylation at activation loop (S744/8) and autophosphorylation (S916) sites after stimulation: mouse cortical cultures, substance applied alone, 10 min
[3] = test system: pH-GluR2; assay: pHluorin GluR2 recycling assay in mouse cortical neurons; format: cell-based
Description: Rat GluR2 tagged with superecliptic pHluorin was cloned into pGW1 mammalian expression vector. mCherry was subcloned to replace enhanced green fluorescent protein (EGFP) in FUGW PKD1 shRNA and control vectors. mCherry served as a morphology marker to monitor the overall health of the cell. pHluorin-GluR2 and PKD1 shRNA or mutant control were transfected into mouse cortical neurons with Lipofectamine 2000 (Invitrogen). At 12 DIV, neurons were imaged on a Zeiss LSM 510 confocal microscope with a 40× water immersion lens in HBS as described above, only nimodipine was excluded. After 20 min of baseline imaging, 30 μM glutamate and 10 μM glycine were washed on to cells by gravity flow perfusion for 5 min, followed by washout with control HBS solution. Images were collected every 5 min. Average pixel intensity of pH-GluR2 in the cell body was calculated in MetaMorph, and background was measured in a cell-free region of the image and subtracted from fluorescence intensities before further calculations. Fractional change in fluorescent intensity (ΔF/F0) was calculated as Ft−F0/F0, where Ft is pHGluR2 intensity at time t and F0 is the average pH-GluR2 fluorescence intensity at four points before glutamate application.

| Molecule | effect on glutamate-induced Venus-PKD1 puncta formation [1] | PKD1 phosphorylation at activation loop (S744/8) and autophosphorylation (S916) sites after stimulation ([2]; glutamate 30 μM) | further results |
| --- | --- | --- | --- |
| NC(CCCP(=O)(O)O)C(=O)O (racemic) [APV, D,L-2-amino-5-phosphonovaleric acid] | blocked | – | effect on glutamate-induced PKD1 phosphorylation [2]: did not block phosphorylation |
| N[C@@]1(C(=O)O)CC[C@@H](C(=O)O)C1 [ACPD, (1S,3R)-1-aminocyclopentane-1,3-dicarboxylic acid] | – | induced phosphorylation | Venus-PKD1 translocation / puncta formation induced by the substance [1]: did not induce translocation |
| N[C@H](C(=O)O)c1cc(O)cc(O)c1 [DHPG, (S)-3,5-dihydroxyphenylglycine] | – | induced phosphorylation | – |
| CN(C)CCCn1cc(C2=C(c3c[nH]c4ccccc34)C(=O)NC2=O)c2ccccc21 [GF109203X] | had no effect | – | effect on glutamate-induced Venus-PKD1 puncta formation ([1]; listed as GF 109203×): did not prevent PKD1 translocation |
| Cn1c2ccccc2c2c3c(c4c5ccccc5n(CCC#N)c4c21)CNC3=O [Gö6976] | had no effect | – | – |
| COc1ccc2c(c1)c(C1=C(c3c[nH]c4ccccc34)C(=O)NC1=O)cn2CCCN(C)C [Gö6983] | did not prevent PKD1 translocation; also recorded: had no effect | – | – |
| CC(N)(C(=O)O)c1ccc(C(=O)O)cc1 (stereo not drawn) [MCPG, alpha-methyl-4-carboxyphenylglycine] | unaffected | – | effect on glutamate-induced PKD1 phosphorylation [2]: reduced glutamate-induced PKD1 phosphorylation |
| CN[C@H](CC(=O)O)C(=O)O [NMDA, N-methyl-D-aspartate] | – | did not stimulate autophosphorylation | Venus-PKD1 translocation / puncta formation induced by the substance [1]: puncta formation was induced |
| COc1ccc2c(c1)CC[C@@H]1[C@@H]2CC[C@]2(C)[C@@H](NCCCCCCN3C(=O)C=CC3=O)CC[C@@H]12 [U73122] | blocked glutamate-induced puncta formation; also recorded: blocks puncta formation | – | – |
| glutamate | – | rapidly and robustly phosphorylated | pH-GluR2 fluorescence intensity ([3]; after 5 minutes of glutamate application): ~80 % of baseline; pH-GluR2 fluorescence recovery ([3]; fifty-five minutes after glutamate stimulation, neurons with endogenous PKD1): > 90 % of baseline; pH-GluR2 fluorescence intensity at maximal endocytosis ([3]; immediately after glutamate stimulation): 20 % of baseline; Venus-PKD1 translocation / puncta formation induced by the substance [1]: translocated to discrete puncta throughout the dendrites; duration of glutamate-induced PKD1 phosphorylation ([2]; glutamate 30 μM, time of stimulation): up to 60 min |
| BDNF: brain-derived neurotophic factor, activates TrkB receptors (protein, UniProt P23560 19-247, looked up) Neurotrophic factor BDNF …: APMKEANIRGQGGLAYPGVRTHGTLESVNGPKAGSRGLTSLADTFEHVIEELLDEDQKVRPNEENNKDADLYTSRVMLSSQVPLEPPLLFLLEEYKNYLDAANMSMRVRRHSDPARRGELSVCDSISEWVTAADKKTAVDMSGGTVTVLEKVPVSKGQLKQYFYETKCNPMGYTKEGCRGIDKRHWNSQCRTTQSYVRALTMDSKKRIGWRFIRIDTSCVCTLTIKRGR | – | did not activate PKD1 | – |
